US11667649B2, “Heteroaromatic macrocyclic ether chemotherapeutic agents” (Nuvalent, Inc., priority 2020, dated 2023)

Tested on: TPM3-NTRK1-wt IC50 / primary target (e.g. CD74-ROS1-wt) IC50, Ba/F3 cells
Test: Cell assay TRKA selectivity (TRKA potency divided by primary target potency)
Type: cell-based
Conditions: for TPM3-NTRK1-wt/CD74-ROS1-G2032R: TRKA selectivity ratio: TPM3-NTRK1-wt IC50 / CD74-ROS1-G2032R IC50, Ba/F3 cells; for TPM3-NTRK1-wt/CD74-ROS1-wt: TRKA selectivity ratio: TPM3-NTRK1-wt IC50 / CD74-ROS1-wt IC50, Ba/F3 cells; for TPM3-NTRK1-wt/EML4-ALK-L1196M-G1202R: TRKA selectivity ratio: TPM3-NTRK1-wt IC50 / EML4-ALK-L1196M-G1202R IC50, Ba/F3 cells; for TPM3-NTRK1-wt/EML4-ALK-wt: TRKA selectivity ratio: TPM3-NTRK1-wt IC50 / EML4-ALK-wt IC50, Ba/F3 cells
In short: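 Ratio of TRKA to primary-target cellular IC50 (e.g. TPM3-NTRK1-wt/CD74-ROS1-wt), grouped into bins A >30, B >10, C ≥1, D <1. Each IC50 came from engineered Ba/F3 fusion lines grown without IL-3, dosed for 72 h and read as CellTiter-Glo luminescence, with a four-parameter logistic fit.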

SMILES | TPM3-NTRK1-wt/CD74-ROS1-G2032R | TPM3-NTRK1-wt/CD74-ROS1-wt | TPM3-NTRK1-wt/EML4-ALK-L1196M-G1202R | TPM3-NTRK1-wt/EML4-ALK-wt
CCn1ncc2c1-c1cnc(N)c(c1)OCc1cc(F)ccc1-n1nc(C)cc1C2 [Example 69, 3-ethyl-16-fluoro-10-methyl-20-oxa-3,4,11,12,23-pentaazapentacyclo[19.3.1.0^2,^6.0^8,^12.0^13,^18]pentacosa-1(24),2(6),4,8,10,13,15,17,21(25),22-decaen-22-amine] | A (bin A for very high selectivity, ratio>30-fold) | A (bin A for very high selectivity, ratio>30-fold) | B (bin B for high selectivity, ratio>10-fold) | A (bin A for very high selectivity, ratio>30-fold)
CCn1ncc2c1-c1cnc(N)c(c1)O[C@H](C)c1cc(F)ccc1-c1nn(C(F)F)cc1C2 [Example 86, (19R)-10-(difluoromethyl)-3-ethyl-16-fluoro-19-methyl-20-oxa-3,4,10,11,23-pentaazapentacyclo[19.3.1.0^2,^6.0^8,^12.0^13,^18]pentacosa-1(24),2(6),4,8,11,13,15,17,21(25),22-decaen-22-amine] | B (bin B for high selectivity, ratio>10-fold) | A (bin A for very high selectivity, ratio>30-fold) | D (bin D for low selectivity, ratio<1) | C (bin C for moderate selectivity, ratio≥1)
C[C@H]1Oc2cc(cnc2N)-c2c(C#N)ncn2Cc2scnc2-c2ccc(F)cc21 [Example 64, (19R)-22-amino-16-fluoro-19-methyl-20-oxa-9-thia-4,6,11,23-tetraazapentacyclo[19.3.1.0^2,^6.0^8,^12.0^13,^18]pentacosa-1(24),2,4,8(12),10,13(18),14,16,21(25),22-decaene-3-carbonitrile] | A (bin A for very high selectivity, ratio>30-fold) | A (bin A for very high selectivity, ratio>30-fold) | B (bin B for high selectivity, ratio>10-fold) | A (bin A for very high selectivity, ratio>30-fold)
C[C@H]1Oc2cc(cnc2N)-c2c(C#N)cnn2Cc2ccnn2-c2ccc(F)cc21 [Example 58, (19R)-22-amino-16-fluoro-19-methyl-20-oxa-4,6,11,12,23-pentaazapentacyclo[19.3.1.0^2,^6.0^8,^12.0^13,^18]pentacosa-1(24),2,4,8,10,13,15,17,21(25),22-decaene-3-carbonitrile] | A (bin A for very high selectivity, ratio>30-fold) | A (bin A for very high selectivity, ratio>30-fold) | B (bin B for high selectivity, ratio>10-fold) | A (bin A for very high selectivity, ratio>30-fold)
Cc1nn(CC2CC2)c2c1Cc1cccnc1-c1ccc(F)cc1[C@@H](C)Oc1cc-2cnc1N [Example 135, (20R)-3-(cyclopropylmethyl)-17-fluoro-5,20-dimethyl-21-oxa-3,4,12,24-tetraazapentacyclo[20.3.1.0^2,^6.0^8,^13.0^14,^19]hexacosa-1(25),2(6),4,8(13),9,11,14,16,18,22(26),23-undecaen-23-amine] | A (bin A for very high selectivity, ratio>30-fold) | A (bin A for very high selectivity, ratio>30-fold) | A (bin A for very high selectivity, ratio>30-fold) | A (bin A for very high selectivity, ratio>30-fold)
CCn1ncc2c1-c1cnc(N)c(c1)OC(C)c1cc(F)ccc1-c1ncncc1C2 (stereo not drawn) [Example 42, 3-ethyl-17-fluoro-20-methyl-21-oxa-3,4,10,12,24-pentaazapentacyclo[20.3.1.0^2,^6.0^8,^13.0^14,^19]hexacosa-1(25),2(6),4,8(13),9,11,14,16,18,22(26),23-undecaen-23-amine] | A (bin A for very high selectivity, ratio>30-fold) | A (bin A for very high selectivity, ratio>30-fold) | B (bin B for high selectivity, ratio>10-fold) | A (bin A for very high selectivity, ratio>30-fold)
